Results from patent US10246488B2, “Use of inhibitory peptides for the treatment of inflammatory diseases” (Yeda Research and Development Co. Ltd., priority 2013, dated 2019).
Ends that are not written are not given here. * marks the point of attachment. Myristoyl = CCCCCCCCCCCCCC(=O)*

How the values were obtained:
JNK1/2 and p38α/β = test: Immunofluorescence of stimulated nuclear translocation of JNK1/2 and p38α/β in HeLa cells; assay type: cell-based; settings: for stimuli-dependent nuclear translocation of JNK1/2 and p38α/β: HeLa cells, peptide 10 μM applied prior to stimulation, Anisomycin 0.5 μg/ml
Method: FIGS. 2A-2C illustrate that Imp3, 7 and 9 are required for JNK and p38 translocation and induced transcription. (A) Si RNAs of Imp3, 7, 9, but not Imp5, inhibit the stimulated JNK and p38 nuclear translocation. HeLa cells were grown on cover slides to 30% confluence. si RNAs of the indicated Imps and si Control supplied by the company (si Scr, negative control) were then transfected to the cells using Dharmafect according to the manufacturer's instructions. Forty eight hrs after transfection, the cells were serum starved, then either stimulated with Anisomycin (0.5 μg/ml, 15 min), or left untreated (NT) as indicated. The cells were then fixed, stained using the indicated (left) anti MAPK Abs and visualized using a fluorescent microscope. (B) Quantification of JNKs/p38s nuclear localization prior and upon stimulation. Data shown represents mean±S.E. The significance of Imp3 vs. Imp7/Imp9 (*) was p<0.0003. The significance of stimulated Imp3/7/9 vs Scr was p<0.00001 (C) Si RNA of Imp3, 7, 9 inhibit the activation of downstream transcription factor targets of JNKs/p38s. HeLa cells were transfected with si RNAs of the indicated Imps and si control supplied by the manufacturer (si Scr, negative control) using Dharmafect according to the manufacturer instructions. Forty eight hrs after transfection, the cells were serum starved, and then stimulated with Anisomycin (Anis 0.5 μg/ml) for the indicated times or left untreated (NT). Cell extracts were subjected to a Western blot analysis with anti pJUN, pMEF2A, pATF2, indicated Imps, and tubulin Abs.
HeLa cells were grown on slides to 70% confluence, serum starved (0.1% FBS, 16 hrs), and then either incubated with the inhibitory peptide (Peptide, 10 μM) or scrambled peptide (Scr peptide, 10 μM), cells were then treat with Anisomycin (Anis, 0.5 μg/ml) or left untreated (NT). Cells were fixed, and stained with anti JNK1, JNK2, p38α or p38β Abs as indicated, and DAPI to detect nuclei. The slides were visualized using a fluorescent microscope. […] HeLa cells were grown to 70% confluence, serum starved (0.1% FBS, 16 hrs), and then either incubated with the inhibitory peptide (Peptide, 10 μM), scrambled peptide (Scr peptide, 10 μM), or DMSO, followed by treatment with Anisomycin (Anis, 0.5 μg/ml) or mock control (NT). Cell extracts were then subjected to Co-IP with anti JNK1, JNK2, p38α, p38β Abs. The interacting Imp7 was detected by Western blot with the indicated anti Imps Abs. Amount of IPed MAPKs was detected by the anti JNK1, JNK2, p38α and p38β Abs as indicated. […]
FIGS. 19A-19C illustrate that myristoylated peptides inhibit the stimulation dependent nuclear translocation of p38. […] The nuclei were detected using DAPI and slides were visualized using a spinning disc confocal microscope (Zeiss, ×100 magnification). […]

[1] = biological target: T1, interaction of JNK1/2 and p38α/β with Imp7 (Homo sapiens, UniProt O95373); test: Co-immunoprecipitation of MAPKs with importins from extracts of treated HeLa cells; assay type: cell-based; settings: for interaction of p38 with Imp7 (CoIP): HeLa cells pre-incubated with modified peptide 2 hours, anisomycin 0.5 μg/ml 15 min; for Imp7/9 interactions of the MAPKs examined (JNK1/2 and p38α/β), Co-IP: HeLa cells, peptide 10 μM applied prior to stimulation, Anisomycin 0.5 μg/ml
T1 construct: endogenous in cells; host or cells: HeLa
Method: HeLa cells were grown on slides to 70% confluence, serum starved (0.1% FBS, 16 hrs), and then either incubated with the inhibitory peptide (Peptide, 10 μM) or scrambled peptide (Scr peptide, 10 μM), cells were then treat with Anisomycin (Anis, 0.5 μg/ml) or left untreated (NT). Cells were fixed, and stained with anti JNK1, JNK2, p38α or p38β Abs as indicated, and DAPI to detect nuclei. The slides were visualized using a fluorescent microscope. […] HeLa cells were grown to 70% confluence, serum starved (0.1% FBS, 16 hrs), and then either incubated with the inhibitory peptide (Peptide, 10 μM), scrambled peptide (Scr peptide, 10 μM), or DMSO, followed by treatment with Anisomycin (Anis, 0.5 μg/ml) or mock control (NT). Cell extracts were then subjected to Co-IP with anti JNK1, JNK2, p38α, p38β Abs. The interacting Imp7 was detected by Western blot with the indicated anti Imps Abs. Amount of IPed MAPKs was detected by the anti JNK1, JNK2, p38α and p38β Abs as indicated.
(A) Myristiolated peptide was modified (replacement of 3 residues to alanin) Myr-KPERYQNLSPVGSGA—SEQ ID NO: 9; Myr-KPERYQNLSPVAAAA—SEQ ID NO: 10. (B) Hela cells were pre-incubated with modified peptide (2 hours) then either stimulated with anisomycin (Anis, 0.5 μg/ml, 15 min) or left untreated. Cell extracts were then subjected to CoIP with anti p38a . The interacting Imp7 or IPed p38 were detected by Western blot with indicated Abs.
Co-Immunoprecipitation: HeLa cells were grown to subconfluency, serum-starved (0.1% FBS for 16 h) and then stimulated or treated with other drugs. Cell extracts were produced as previously described and incubated for 2 hours (4° C., with rotation) with A/G-agarose beads (Santa Cruz Biotechnology) pre-linked with specific Abs (1 hrs, 23° C.). The bound A/G beads were washed three times with ice-cold washing buffer. The IPed beads were then resuspended with 1.5× sample buffer and boiled; the resolved proteins were analyzed by Western blotting with the indicated Abs.
CoIP: Cell extracts were produced and incubated for 2 hr (4° C., with rotation) with A/G-agarose beads pre-linked with specific Abs (1 hr, 23° C.). The bound A/G beads were washed, resuspended (1.5× sample buffer), boiled and subjected to Western blotting.

MAPKs = test: Western blot of stimulation-dependent activation of MAPKs in HeLa cells; assay type: cell-based; settings: HeLa cells pre-incubated with peptide, Anisomycin 0.5 μg/ml or TPA 250 nM
Method: HeLa cells were grown to 70% confluence, serum starved and pre-incubated with either new peptide (NP), peptide or scrambled peptide and then either stimulated with Anisomycin (Anis 0.5 μg/ml), TPA (250 nM) or left untreated (NT). Cell extracts were produced and subjected to Western blot analysis with the indicated Abs.

DSS-induced Colitis = test: DSS-induced colitis model; assay type: in vivo; settings: male C57BL mice, 15 mg/Kilo I.V every 48 hours, DSS 1.25% in drinking water, 7 days, compared with control peptide
Method: FIGS. 17A-17C illustrate the use of inhibitory peptide as a potential therapeutic agent in colitis model. 21 male C57BL mice treated (I.V every 48 hours) with either peptide (15 mg/Kilo), scramble peptide (15 mg/Kilo) or DMSO (2%). Colitis was induced using DSS (1.25% in drinking water) and mice were sacrificed 7 days post induction. (A-C). Colitis was evaluated using endoscopic imaging and scored for the number of lesions in the colon and weight of mice.
In vivo experiment: 21 male C57BL mice were weighed then injected (I.V) with either peptide (15 mg/Kilo), scramble peptide (15 mg/Kilo) or DMSO (2%). Twenty-four hours post injection drinking water of the mice was replaced with water containing DSS (1.25%), peptide, scramble peptide or DMSO were injected every forty-eight hours. Mice were sacrificed seven days post replacement of drinking water, and colitis was assessed using endoscopy and weight of mice.

[2] = listed as 14 amino acid myristoylated peptide

T1 sequence (O95373 whole entry): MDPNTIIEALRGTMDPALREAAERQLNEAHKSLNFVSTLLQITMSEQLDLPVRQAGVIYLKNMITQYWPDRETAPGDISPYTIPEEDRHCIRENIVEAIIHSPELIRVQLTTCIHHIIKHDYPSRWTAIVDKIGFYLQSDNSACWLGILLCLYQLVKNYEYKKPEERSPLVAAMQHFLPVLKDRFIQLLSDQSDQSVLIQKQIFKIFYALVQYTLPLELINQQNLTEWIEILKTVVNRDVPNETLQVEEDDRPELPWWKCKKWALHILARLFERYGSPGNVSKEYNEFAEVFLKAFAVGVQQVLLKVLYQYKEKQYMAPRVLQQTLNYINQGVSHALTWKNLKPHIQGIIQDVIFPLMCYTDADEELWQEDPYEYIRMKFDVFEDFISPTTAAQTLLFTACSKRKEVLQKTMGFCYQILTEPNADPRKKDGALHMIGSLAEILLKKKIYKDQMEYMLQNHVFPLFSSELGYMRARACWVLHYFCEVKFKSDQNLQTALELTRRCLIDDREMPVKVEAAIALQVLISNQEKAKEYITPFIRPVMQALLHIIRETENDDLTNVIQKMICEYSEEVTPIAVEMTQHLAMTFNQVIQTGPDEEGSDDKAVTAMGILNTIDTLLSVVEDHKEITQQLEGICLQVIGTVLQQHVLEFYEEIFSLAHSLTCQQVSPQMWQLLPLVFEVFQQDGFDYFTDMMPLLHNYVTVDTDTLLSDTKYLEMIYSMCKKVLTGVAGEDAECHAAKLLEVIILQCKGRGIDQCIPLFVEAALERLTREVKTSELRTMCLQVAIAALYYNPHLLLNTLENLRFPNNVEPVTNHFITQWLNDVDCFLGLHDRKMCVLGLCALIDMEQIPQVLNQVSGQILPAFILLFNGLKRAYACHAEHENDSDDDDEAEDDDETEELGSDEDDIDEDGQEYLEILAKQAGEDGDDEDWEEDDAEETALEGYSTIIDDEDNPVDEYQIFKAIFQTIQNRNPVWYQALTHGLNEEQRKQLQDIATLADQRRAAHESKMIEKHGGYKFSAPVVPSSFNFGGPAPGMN

With “Myr-KPERYQNLSPVAAAA (Myristoyl-KPERYQNLSPVAAAA) [myristoylated peptide modified by replacement of 3 residues to alanin]” the “stimulation-induced nuclear translocation of JNK and p38 MAPKs” value (JNK1/2 and p38α/β; HeLa cells pre-incubated with peptide, Anisomycin 0.5 μg/ml 15 min, spinning disc confocal microscope) was “prevented”, the “interaction of p38 with Imp7 (CoIP)” value [1] was “blocks the interaction” and the “interaction of p38 with Imp7 (CoIP)” value ([1]; listed as newly designed peptide) was “inhibited”. The “stimulation-dependent activation (kinase activity) of MAPKs” value (MAPKs) was “without affecting”.
In the case of “Myr-KPERYQNLSPVGSGA (Myristoyl-KPERYQNLSPVGSGA)”, the “DSS-induced Colitis (average weight loss and number of lesions in the colon)” value (DSS-induced Colitis) is reported as “reduced DSS-induced Colitis”.
In the case of “Myr-PERYQNLSPVGSGA (Myristoyl-PERYQNLSPVGSGA) [14 amino acid myristoylated peptide based on residues 21-34 of p38α]”, the “stimuli-dependent nuclear translocation of JNK1/2 and p38α/β” value (“stimuli-dependent nuclear translocation” below) (JNK1/2 and p38α/β) is reported as “prevented the nuclear translocation”, the “stimuli-dependent nuclear translocation” value (JNK1/2 and p38α/β; [2]) is reported as “prevented the nuclear translocation” and the “stimuli-dependent nuclear translocation” value (JNK1/2 and p38α/β; listed as inhibitory peptide) is reported as “inhibits the stimuli-dependent nuclear translocation”. For the same substance, the “Imp7/9 interactions of the MAPKs examined (JNK1/2 and p38α/β), Co-IP” value (“Imp7/9 interactions” for short) [1] was “prevented”, the “Imp7/9 interactions” value [1, 2] was “prevented” and the “Imp7/9 interactions” value ([1]; listed as inhibitory peptide) was “inhibits the interaction”.
